# Legend:
# [1] = molecular target: Human JNK1α1 (Homo sapiens (Human), UniProt P45983); assay: JNK assay in vitro: phosphorylation of GST-ATF2 (19-96) with [γ-33P] ATP, JNK1; type: biochemical; conditions: 2 nM enzyme, 1 μM ATF2, 6 μM ATP (Km), 30° C. 30 min
# Procedure: JNK activity was measured by phosphorylation of GST-ATF2 (19-96) with [γ-^33P] ATP. […] Human JNK2α2 assay contains 1 nM enzyme, 1 μM ATF2, 8 μM ATP with 1 uCi [γ-^33P] ATP. Human JNK1α1 assay contains 2 nM enzyme, 1 μM ATF2, 6 μM ATP with 1 μCi [γ-^33P] ATP. […] ATP. The enzyme assay was carried out in the presence or absence of several compound concentrations. JNK and compound were pre-incubated for 10 min., followed by initiation of the enzymatic reaction by adding ATP and the substrate. The reaction mixture was incubated at 30° C. for 30 min. […] The incorporation of ^33P into ATF2 was quantified on a microplate scintillation counter (Packard Topcount). Compound inhibition potency on JNK was measured by IC50 value generated from ten concentration inhibition curves fitted into the 3-parameter model: % inhibition=Maximum/(1+(IC50/[Inhibitor])^slope). Data were analyzed on Microsoft Excel for parameter estimation.
# [2] = molecular target: Human JNK2α2 (Homo sapiens (Human), UniProt P45984); assay: JNK assay in vitro: phosphorylation of GST-ATF2 (19-96) with [γ-33P] ATP, JNK2; type: biochemical; conditions: 1 nM enzyme, 1 μM ATF2, 8 μM ATP (Km), 30° C. 30 min
# Human JNK2α2, sequence (P45984 whole entry): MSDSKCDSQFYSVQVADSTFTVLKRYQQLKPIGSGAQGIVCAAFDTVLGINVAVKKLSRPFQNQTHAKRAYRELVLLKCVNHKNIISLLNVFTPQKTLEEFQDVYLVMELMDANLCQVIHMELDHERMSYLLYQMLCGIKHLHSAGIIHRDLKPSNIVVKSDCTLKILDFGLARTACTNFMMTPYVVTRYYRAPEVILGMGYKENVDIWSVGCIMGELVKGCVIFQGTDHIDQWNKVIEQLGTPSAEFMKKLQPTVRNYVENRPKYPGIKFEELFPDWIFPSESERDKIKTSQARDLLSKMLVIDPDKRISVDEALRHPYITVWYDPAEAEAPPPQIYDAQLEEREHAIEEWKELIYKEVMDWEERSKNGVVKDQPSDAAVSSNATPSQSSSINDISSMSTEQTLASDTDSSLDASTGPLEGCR
# Procedure: JNK activity was measured by phosphorylation of GST-ATF2 (19-96) with [γ-^33P] ATP. […] Human JNK2α2 assay contains 1 nM enzyme, 1 μM ATF2, 8 μM ATP with 1 uCi [γ-^33P] ATP. Human JNK1α1 assay contains 2 nM enzyme, 1 μM ATF2, 6 μM ATP with 1 μCi [γ-^33P] ATP. Human JNK3 (Upstate Biotech #14-501M) assay contains 2 nM enzyme, 1 μM ATF2, 4 μM ATP with 1 μCi [γ-^33P] ATP. The enzyme assay was carried out in the presence or absence of several compound concentrations. JNK and compound were pre-incubated for 10 min., followed by initiation of the enzymatic reaction by adding ATP and the substrate. The reaction mixture was incubated at 30° C. for 30 min. At the end of incubation, the reaction was terminated by transferring 25 μl of the reaction mixture to 150 μl of 10% glutathione Sepharose® slurry (Amersham #27-4574-01) containing 135 mM EDTA. The reaction product was captured on the affinity resin, and washed on a filtration plate (Millipore, MABVNOB50) with phosphate buffered saline for six times to remove free radionucleotide. The incorporation of ^33P into ATF2 was quantified on a microplate scintillation counter (Packard Topcount). Compound inhibition potency on JNK was measured by IC50 value generated from ten concentration inhibition curves fitted into the 3-parameter model: % inhibition=Maximum/(1+(IC50/[Inhibitor])^slope). Data were analyzed on Microsoft Excel for parameter estimation.
# Human JNK1α1, sequence (P45983 other isoform, or with tags, fused parts or gaps): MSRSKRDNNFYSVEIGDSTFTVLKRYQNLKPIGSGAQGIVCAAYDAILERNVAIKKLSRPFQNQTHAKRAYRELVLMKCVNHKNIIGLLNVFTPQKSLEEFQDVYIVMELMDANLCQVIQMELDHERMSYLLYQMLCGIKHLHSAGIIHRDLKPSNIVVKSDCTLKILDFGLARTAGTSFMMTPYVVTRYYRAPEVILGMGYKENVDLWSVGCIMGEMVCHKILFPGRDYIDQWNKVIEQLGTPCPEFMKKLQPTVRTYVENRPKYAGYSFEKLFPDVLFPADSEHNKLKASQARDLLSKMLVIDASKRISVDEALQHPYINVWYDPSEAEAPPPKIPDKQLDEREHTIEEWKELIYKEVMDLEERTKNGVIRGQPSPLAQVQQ
IC50 [1] [nM],IC50 [2] [nM],SMILES
9.2,18.7,"CCN1CCN(C(=O)[C@H]2CC[C@H](Nc3nccc(-n4ccc5c(N6CCN(C(=O)CC#N)CC6)cccc54)n3)CC2)CC1 [Compound I-56, 3-[4-(1-{2-[4-(4-Ethyl-piperazine-1-carbonyl)-cyclohexylamino]-pyrimidin-4-yl}-1H-indol-4-yl)-piperazin-1-yl]-3-oxo-propionitrile]"
12.4,25.7,"CC(=O)N1CCN(c2cccc3c2c(C(N)=O)cn3-c2ccnc(N[C@H]3CC[C@H](O)CC3)n2)CC1 [Compound I-63, 4-(4-Acetyl-piperazin-1-yl)-1-[2-(4-hydroxy-cyclohexylamino)-pyrimidin-4-yl]-1H-indole-3-carboxylic acid amide]"
5.8,16.7,"CS(=O)(=O)C1CCN(c2cccc3c2cnn3-c2ccnc(N[C@H]3CC[C@H](O)CC3)n2)CC1 [Compound I-66, 4-{4-[4-(4-Methanesulfonyl-piperidin-1-yl)-indazol-1-yl]-pyrimidin-2-ylamino}-cyclohexanol]"

SMILES,IC50 [1] [nM],IC50 [2] [nM]
"N#CCC(=O)N1CCN(c2cccc3c2ccn3-c2ccnc(N[C@H]3CC[C@@H](O)CC3)n2)CC1 [Compound I-57, 3-(4-{1-[2-(4-Hydroxy-cyclohexylamino)-pyrimidin-4-yl]-1H-indol-4-yl}-piperazin-1-yl)-3-oxo-propionitrile]",15.9,88.4

# — patent US8536172B2, “Inhibitors of JNK” (Roche Palo Alto LLC, priority 2009, dated 2013)
